For the data set, the system named is DRGs, motor neurons, and Schwann cells. Description: Alamar blue viability assay of PN cells cultured 72 hours with immunosuppressive drugs. The note with it: 72 hours culture, max 1% DMSO. On the procedure:
It is contemplated that delivery of immunosuppressive agents function within a favorable therapeutic window. PNs are comprised of three major nervous system cell types, motor neurons, sensory neurons, and Schwann cells. […] FIG. 1B illustrates data regarding the toxicity of tacrolimus to DRGs, motor neurons, and Schwann cells. FIG. 1C illustrates data regarding the toxicity of prednisolone to DRGs, motor neurons, and Schwann cells.
Cells (DRGs, motor neurons, and Schwann cells) were cultured for 72 hours in various concentration of the immunosuppressive drugs and viability was evaluated using the Alamar blue viability assay. ISV's were diluted into media using a maximum of 1% dimethylsulfoxide (DMSO).
Biological material from Sprague Dawley (GFP− and GFP+) and Lewis rats, without any pathological conditions, were utilized to determine the PN allograft methods and materials described herein. Lewis rats were obtained from Charles River Laboratories (Wilmington, Mass.) and Sprague Dawley rats were obtained from Rat Resource and Research Center (Columbia, Mo.). Alzet osmotic pumps (model 1004), commercially available from DURECT Corporation, Cupertino, Calif., were utilized for delivery of immunosuppressive agents to PN allografts.

As for `C[C@]12C=CC(=O)C=C1CC[C@@H]1[C@@H]2[C@@H](O)C[C@@]2(C)[C@H]1CC[C@]2(O)C(=O)CO` [prednisolone], the “dose tolerated by the cells (up to)” value was “up to 200 μM”.

For the origin of these results see patent US10682408B2, “Localized immunosuppression of allografts for peripheral nerve repair” (UNIVERSITY OF WYOMING, priority 2016, dated 2020).
